Test results taken from patent US20110195845A1, “Constructs for Expressing Herbicide Tolerance Genes, Related Plants, and Related Trait Combinations” (Dow AgroSciences LLC, priority 2008, published 2011).

What was measured:
PAT (pDAS1942) corn = assay: T2 corn response to glufosinate applied postemergence; type: in vivo; settings: 14DAT
Source text: The seed from the cross of T1 DSM-2 (v2)×5× H751 were planted into 4-inch pots containing Metro Mix media and at 2 leaf stage were sprayed in the track sprayer set to 187 L/ha at 560 g ai/ha glufosinate to remove nulls. At 7 DAT nulls were removed and resistant plants were sprayed in the track sprayer as above at the following rates: 0, 560, 1120, 2240, and 4480 g ai/ha glufosinate. Plants were graded at 3 and 14 DAT and compared to 5× H751× Hi II control plants.

[1] = tested on: NT-1 tobacco suspension cells treated with DSM-2 (v2) (pDAB3778); assay: NT-1 tobacco cell transformation, selection on bialaphos or glufosinate ammonium; type: cell-based
Protocol: Four days prior to transformation, a 1 week old NT-1 tobacco suspension, which was being subcultured every 7 days, was subcultured to fresh medium by adding 2 ml of the NT-1 culture or 1 ml of packed cells into 40 ml NT-1 B media. The subcultured suspension was maintained in the dark at 25±1° C. on a shaker at 125 rpm.
A 50% glycerol stock of Agrobacterium tumefaciens [strain LBA4404] harboring a binary vector of interest was used to initiate a liquid overnight culture by adding 20, 100, or 500 μl to 30 ml YEP liquid (10 g/L yeast extract, 10 g/L Peptone, 5 g/L NaCl, 0-10 g/L Sucrose) containing 50-100 mg/L spectinomycin. The bacterial culture was incubated in the dark at 28° C. in an incubator shaker at 150-250 rpm until the OD600 was 1.5+0.2. This took approximately 18-20 hrs.
For each vector tested, 20-70 mL of 4-day old suspension cells were transferred into a sterile vessel, to which 500-1750 μl of Agrobacterium suspension at the proper OD was added. To ensure a uniform mixture was achieved, the cells were pipetted up and down 5 times with a 10 ml wide-bore pipet. The uniform suspension was then drawn up into a 25 ml barrel of a repeat pipetter and 250 μl of the suspension was dispensed per well into 24-well plates, continuing until the suspension was exhausted. The well plates were wrapped in parafilm and cultured in the dark at 25±1° C. without shaking for a 3 day co-cultivation.
Following the co-cultivation, all excess liquid was removed from the individual wells with a 1 mL pipet tip, and remaining cells were resuspended in 1 ml NTC liquid (NT-1 B medium containing 500 mg/L carbenicillin, added after autoclaving). The contents of an individual well were dispersed across the entire surface of 100×25 mm selection plates using disposable transfer pipets. Selection media consisted of NTC media solidified with 8 g/l TC agar supplemented with 7.5 to 15 mg/L bialaphos or technical grade glufosinate ammonium, added after autoclaving. All selection plates, left unwrapped, were maintained in the dark at 28° C.
Putative transformants appeared as small clusters of callus on a background of dead, non-transformed cells. Calli were isolated approximately 2-6 weeks post-transformation. Each callus isolate was transferred to its own 60×20 mm plate containing the same selection medium and allowed to grow for approximately 2 weeks before being submitted for analysis.

[2] = 560 g ai/ha glufosinate postemergence
[3] = 1120 g ai/ha glufosinate postemergence
[4] = 4480 g ai/ha glufosinate postemergence

Q: With `CP(=O)(O)CCC(N)C(=O)O` (stereo not drawn) [glufosinate] as the molecule, how does the “individuals with % Injury 20-40%” value (PAT (pDAS1942) corn; [2]) read?
A: 0

Q: What about the “individuals with % Injury >40%” value (PAT (pDAS1942) corn; [2]) of the same molecule?
A: 0

Q: What about the “% Injury Ave” value (PAT (pDAS1942) corn; [3]) of the same molecule?
A: 25%

Q: What about the “individuals with % Injury 20-40%” value (PAT (pDAS1942) corn; [3]) of the same molecule?
A: 1

Q: What about the “individuals with % Injury <20%” value (PAT (pDAS1942) corn; [3]) of the same molecule?
A: 0

Q: And the “% Injury Ave” value (PAT (pDAS1942) corn; [4])?
A: 33%

Q: What about the “individuals with % Injury 20-40%” value (PAT (pDAS1942) corn; [4]) of the same molecule?
A: 3

Q: What about the “individuals with % Injury >40%” value (PAT (pDAS1942) corn; [4]) of the same molecule?
A: 1

Q: What about the “Transformation frequency (% of selection plates producing at least one callus) after coding region PCR” value ([1]; 7.5 mg/L selection agent) of the same molecule?
A: 55.6%

Q: And the “Transformation frequency (% of selection plates producing at least one callus) after coding region PCR” value ([1]; 10 mg/L selection agent)?
A: 50.0%

Q: What about the “Transformation frequency (% of selection plates producing at least one callus) after coding region PCR” value ([1]; 12.5 mg/L selection agent) of the same molecule?
A: 44.4%

Q: And the “Transformation frequency (% of selection plates producing at least one callus) after coding region PCR” value ([1]; 15 mg/L selection agent)?
A: 38.9%
